In publication PMC4216214 (Journal of Medicinal Chemistry, 2014):

Legend:
rNTS2 receptor [1] = biological target: T1, rNTS2 receptor (Rattus norvegicus, UniProt Q63384); experiment: Calcium mobilization assay for NTS2 receptor; assay type: cell-based; conditions: calcium mobilization relative to 5b
T1 sequence (Q63384 1-416): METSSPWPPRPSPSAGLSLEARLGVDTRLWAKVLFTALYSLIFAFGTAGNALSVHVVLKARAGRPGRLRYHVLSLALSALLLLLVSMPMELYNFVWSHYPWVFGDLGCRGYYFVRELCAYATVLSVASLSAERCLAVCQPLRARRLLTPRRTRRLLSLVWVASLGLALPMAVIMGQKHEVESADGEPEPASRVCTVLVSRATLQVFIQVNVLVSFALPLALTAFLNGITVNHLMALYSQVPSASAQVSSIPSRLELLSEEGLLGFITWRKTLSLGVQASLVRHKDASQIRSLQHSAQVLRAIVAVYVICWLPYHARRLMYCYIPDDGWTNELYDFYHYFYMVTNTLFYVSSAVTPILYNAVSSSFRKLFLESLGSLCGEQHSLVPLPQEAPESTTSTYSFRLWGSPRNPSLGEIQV

rNTS1 receptor = rNTS1 receptor (Rattus norvegicus, UniProt P20789); experiment: Calcium mobilization assay for NTS1 receptor; assay type: cell-based; conditions: for activity at NTS1: NTS1 FLIPR calcium assay
rNTS2 receptor [2] = biological target: T1, rNTS2 receptor; experiment: Competitive [125I]NT whole-cell binding assay, CHO-k1 cells overexpressing rNTS2

Sequence of rNTS1 receptor (P20789 whole entry): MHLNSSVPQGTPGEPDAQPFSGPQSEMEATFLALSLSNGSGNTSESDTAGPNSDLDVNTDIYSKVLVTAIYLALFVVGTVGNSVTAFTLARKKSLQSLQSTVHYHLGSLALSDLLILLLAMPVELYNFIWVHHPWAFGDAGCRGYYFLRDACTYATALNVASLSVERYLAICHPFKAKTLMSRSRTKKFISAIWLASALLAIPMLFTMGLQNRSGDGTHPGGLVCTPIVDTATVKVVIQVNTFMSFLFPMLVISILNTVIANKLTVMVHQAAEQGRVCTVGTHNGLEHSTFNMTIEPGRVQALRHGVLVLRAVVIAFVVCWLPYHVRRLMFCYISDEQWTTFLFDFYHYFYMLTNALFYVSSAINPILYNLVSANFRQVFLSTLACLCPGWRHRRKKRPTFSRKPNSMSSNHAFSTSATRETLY

Compound	NTS2 Emax (FLIPR assay) (rNTS2 receptor [1]) [% 5b]	activity at NTS1 (rNTS1 receptor)	Kb (rNTS1 receptor) [nM]	Ki (rNTS2 receptor [2]) [nM]
COc1ccccc1-c1cc(C(=O)NC2(C(=O)O)CCCCC2)nn1-c1ccc(F)cc1 [Compound 7b, 1-({[1-(4-Fluorophenyl)-5-(2-methoxyphenyl)-1H-pyrazol-3-yl]carbonyl}amino)cyclohexanecarboxylic Acid]	7±2	neither calcium nor binding activity at NTS1	–	–
C[C@@H]1CN([C@H]2CC[C@](C#N)(c3ccc(F)cc3)CC2)CC[C@]1(C(=O)O)c1ccccc1 [Compound 6, levocabastine]	16	no activity at NTS1	–	–
COc1cccc(OC)c1-c1cc(C(=O)NC2(C(=O)O)C3CC4CC(C3)CC2C4)nn1-c1ccnc2cc(Cl)ccc12 (stereo not drawn) [Compound 5a]	100	–	4.7 ± 0.8	–
COc1cccc(OC)c1-c1cc(C(=O)NC2(C(=O)O)C3CC4CC(C3)CC2C4)nn1-c1ccc(C(=O)N(C)CCCN(C)C)cc1C(C)C (stereo not drawn) [Compound 5b]	–	–	1.5 ± 0.6	–
COc1cccc(OC)c1-c1cc(C(=O)NC2C3CC4CC(C3)CC2C4)nn1-c1ccnc2cc(Cl)ccc12 (stereo not drawn) [Compound 13, 1-(7-Chloroquinolin-4-yl)-5-(2,6-dimethoxyphenyl)-N-tricyclo[3.3.1.13,7]dec-2-yl-1H-pyrazole-3-carboxamide]	–	inactive	–	> 11000
